Key:
[1] = test system: TGFβ3; assay: Immunohistochemistry of TGFβ3 in respiratory tract tissue of sodium hypochlorite aerosol-treated rabbits; format: in vivo, New Zealand albino rabbits
From the text: (§1) It is known that the factors TGF-α, TGF-β 1, TGF-β 2, TGF-β 3, SPARC, MMP-3; MMP-7, MMP-9, MMP-11, MMP-13 and MMP-14, TGF-β, NF-kB, EGF, MMP-9, VEGF and TNF-α which are produced by lung cells (pneumocytes, fibroblasts and vascular endothelial cells) and inflammatory cells (macrophages, lymphocytes and polymorphonuclear leukocytes) are involved in the pathophysiology and development of said respiratory tract diseases. […] Herein, 27 New Zealand albino rabbits (New Zealand White Rabbit) with an initial average weight about 3 kg were used in this example. All subjects were administered an aerosol of a solution consisting of a mixture of water and sodium hypochlorite (35 g sodium hypochlorite per liter of water) at a rate of 5 mL of said solution by inhalation three times a day for 7 days (days 1 to 7 of experimentation). Subsequently, from days 3 to 7, a group of 3 rabbits (Group 1) was administered an oral dose of 10 mg/kg body weight per day, another group of 3 rabbits (Group 2) was administered an oral dose of 40 mg/kg body weight per day, a third group (Group 3) was administered an oral dose of 80 mg/kg body weight per day and a fourth group (Group 4) was administered an oral dose of 100 mg/kg body weight per day. […] This mixture was administered as an aerosol by inhalation, also from days 3 to 7, to a group of 3 rabbits (group 5) at a dose of 0.05 mg/kg body weight per day, to another group of three rabbits (Group 6) at a dose of 0.1 mg/kg body weight per day, to another group of three rabbits (Group 7) at a dose of 0.2 mg/kg body weight per day and to another group of three rabbits (Group 8) at a dose of 0.4 mg/kg body weight per day. A placebo consisting only of olive oil was administered from days 3 to 7 to a control group of 3 rabbits (placebo group). In parallel, 3 rabbits were kept under identical conditions but were not administered any treatment nor the aforementioned sodium hypochlorite solution (control group). […] On day 7 of the experiment all animals were euthanized and necropsied. […] Samples were taken at the peripheral level of the lung parenchyma, just below the pleural surface. Tissue samples were also taken from the nasal cavity, pharynx, larynx and bronchi. Immunohistochemistry studies were performed for all samples to evaluate the levels of the markers TGF-α, TGF-β 1, TGF-β 2, TGF-β 3 SPARC, MMP-3; MMP-7, MMP-9, MMP-11, MMP-14, TGF-β, TNF-α and VEGF. In said immunohistochemistry studies, a sample of each sample was dehydrated by treatment with increasing concentrations of ethanol and finally xylene. Subsequently said dried samples were embedded in paraffin, thus creating a block. Said paraffin blocks were cut on a microtome to a thickness of 5 μm, and the resulting sections (slices) were placed on slides suitable for conducting immunohistochemistry techniques. Subsequently, the sections were deparaffinised by immersion in xylene and then rehydrated through immersion in a series of solutions containing decreasing concentrations of ethanol and, finally, water. […] The samples were then allowed to cool to room temperature over 10 minutes. Endogenous peroxidase activity was blocked by treatment with 3% hydrogen peroxide over 30 min at room temperature. […] In order to verify the expression of NK1 receptors, the cell samples were incubated in the presence of anti-NK1 antibodies ([…], Sigma-Aldrich) diluted 1:1000 at 4° C. overnight. After this time they were washed in 0.05M Tris buffer at room temperature. Subsequently, Envision System-HRP (Dako) reagents were added for 30 min at room temperature. Once this time had expired, the samples were again washed with 0.05 M Tris buffer, and immunoreactivity was visualized by light microscopy with a chromogenic solution with 3,3'-diaminobenzidine (DAB+; Dako, USA). In order to differentiate the cell nuclei, these were lightly stained with haematoxylin. Samples that were not incubated with the primary antibody, but wherein this was replaced by a non-immune serum were used as negative controls. […]

[2] = test system: MMP-7; assay: Immunohistochemistry of MMP-7 in respiratory tract tissue of sodium hypochlorite aerosol-treated rabbits; format: in vivo, New Zealand albino rabbits
From the text: as §1

[3] = bronchial tissue, Group 1, oral 10 mg/kg per day
[4] = bronchial tissue, Group 2, oral 40 mg/kg per day
[5] = bronchial tissue, Group 3, oral 80 mg/kg per day
[6] = bronchial tissue, Group 4, oral 100 mg/kg per day
[7] = laryngeal tissue, Group 1, oral 10 mg/kg per day
[8] = laryngeal tissue, Group 2, oral 40 mg/kg per day
[9] = laryngeal tissue, Group 3, oral 80 mg/kg per day
[10] = laryngeal tissue, Group 4, oral 100 mg/kg per day
[11] = laryngeal tissue, Group 5, inhalation 0.05 mg/kg per day
[12] = laryngeal tissue, Group 6, inhalation 0.1 mg/kg per day
[13] = laryngeal tissue, Group 7, inhalation 0.2 mg/kg per day
[14] = laryngeal tissue, Group 8, inhalation 0.4 mg/kg per day
[15] = lung tissue, Group 1, oral 10 mg/kg per day
[16] = lung tissue, Group 2, oral 40 mg/kg per day
[17] = lung tissue, Group 3, oral 80 mg/kg per day
[18] = lung tissue, Group 4, oral 100 mg/kg per day
[19] = lung tissue, Group 5, inhalation 0.05 mg/kg per day
[20] = lung tissue, Group 6, inhalation 0.1 mg/kg per day
[21] = lung tissue, Group 7, inhalation 0.2 mg/kg per day
[22] = lung tissue, Group 8, inhalation 0.4 mg/kg per day
[23] = nasal cavity tissue, Group 1, oral 10 mg/kg per day
[24] = nasal cavity tissue, Group 2, oral 40 mg/kg per day
[25] = nasal cavity tissue, Group 3, oral 80 mg/kg per day
[26] = nasal cavity tissue, Group 4, oral 100 mg/kg per day
[27] = nasal cavity tissue, Group 5, inhalation 0.05 mg/kg per day
[28] = nasal cavity tissue, Group 6, inhalation 0.1 mg/kg per day
[29] = nasal cavity tissue, Group 7, inhalation 0.2 mg/kg per day
[30] = nasal cavity tissue, Group 8, inhalation 0.4 mg/kg per day
[31] = pharyngeal tissue, Group 1, oral 10 mg/kg per day
[32] = pharyngeal tissue, Group 2, oral 40 mg/kg per day
[33] = pharyngeal tissue, Group 3, oral 80 mg/kg per day
[34] = pharyngeal tissue, Group 4, oral 100 mg/kg per day
[35] = pharyngeal tissue, Group 5, inhalation 0.05 mg/kg per day
[36] = pharyngeal tissue, Group 6, inhalation 0.1 mg/kg per day
[37] = pharyngeal tissue, Group 7, inhalation 0.2 mg/kg per day
[38] = pharyngeal tissue, Group 8, inhalation 0.4 mg/kg per day

C[C@@H](OC1OCCN(Cc2nc(=O)[nH][nH]2)C1c1ccc(F)cc1)c1cc(C(F)(F)F)cc(C(F)(F)F)c1 (stereo in doubt) [Aprepitant, 5-([(2R,3S)-2-((R)-1-[3,5-bis(trifluoromethyl)phenyl]ethoxy)-3-(4-fluorophenyl)morpholino]methyl)-1H-1,2,4-triazol-3(2H)-one]
Percent increase in TGFβ3 with respect to the control group [1, 3]: 672.56% | Percent increase in TGFβ3 with respect to the control group [1, 4]: 452.45% | Percent increase in TGFβ3 with respect to the control group [1, 5]: 345.32% | Percent increase in TGFβ3 with respect to the control group [1, 6]: 236.12% | % Med G5/C: percent increase in marker TGFβ with respect to the control group ([1]; bronchial tissue, Group 5): 604.34% | % Med G6/C: percent increase in marker TGFβ with respect to the control group ([1]; bronchial tissue, Group 6): 439.53% | % Med G7/C: percent increase in marker TGFβ with respect to the control group ([1]; bronchial tissue, Group 7): 234.56% | % Med G8/C: percent increase in marker TGFβ with respect to the control group ([1]; bronchial tissue, Group 8): 179.19% | Percent increase in TGFβ3 with respect to the control group [1, 7]: 1,234.56% | Percent increase in TGFβ3 with respect to the control group [1, 8]: 1,009.78% | Percent increase in TGFβ3 with respect to the control group [1, 9]: 899.98% | Percent increase in TGFβ3 with respect to the control group [1, 10]: 567.89% | Percent increase in TGFβ3 with respect to the control group [1, 11]: 1,183.45% | Percent increase in TGFβ3 with respect to the control group [1, 12]: 702.33% | Percent increase in TGFβ3 with respect to the control group [1, 13]: 305.32% | Percent increase in TGFβ3 with respect to the control group [1, 14]: 132.22% | Percent increase in TGFβ3 with respect to the control group [1, 15]: 835.84% | Percent increase in TGFβ3 with respect to the control group [1, 16]: 655.71% | Percent increase in TGFβ3 with respect to the control group [1, 17]: 496.55% | Percent increase in TGFβ3 with respect to the control group [1, 18]: 374.47% | Percent increase in TGFβ3 with respect to the control group [1, 19]: 775.37% | Percent increase in TGFβ3 with respect to the control group [1, 20]: 427.90% | Percent increase in TGFβ3 with respect to the control group [1, 21]: 215.59% | Percent increase in TGFβ3 with respect to the control group [1, 22]: 169.46% | Percent increase in TGFβ3 with respect to the control group [1, 23]: 2,813.99% | Percent increase in TGFβ3 with respect to the control group [1, 24]: 2,128.24% | Percent increase in TGFβ3 with respect to the control group [1, 25]: 1,451.25% | Percent increase in TGFβ3 with respect to the control group [1, 26]: 1,188.89% | Percent increase in TGFβ3 with respect to the control group [1, 27]: 2,168.67% | Percent increase in TGFβ3 with respect to the control group [1, 28]: 1,051.06% | Percent increase in TGFβ3 with respect to the control group [1, 29]: 482.03% | Percent increase in TGFβ3 with respect to the control group [1, 30]: 158.62% | Percent increase in TGFβ3 with respect to the control group [1, 31]: 967.72% | Percent increase in TGFβ3 with respect to the control group [1, 32]: 879.34% | Percent increase in TGFβ3 with respect to the control group [1, 33]: 659.59% | Percent increase in TGFβ3 with respect to the control group [1, 34]: 456.45% | Percent increase in TGFβ3 with respect to the control group [1, 35]: 879.45% | Percent increase in TGFβ3 with respect to the control group [1, 36]: 543.45% | Percent increase in TGFβ3 with respect to the control group [1, 37]: 309.45% | Percent increase in TGFβ3 with respect to the control group [1, 38]: 112.43% | Percent increase in MMP-7 with respect to the control group [2, 3]: 504.23% | Percent increase in MMP-7 with respect to the control group [2, 4]: 406.34% | Percent increase in MMP-7 with respect to the control group [2, 5]: 398.45% | Percent increase in MMP-7 with respect to the control group [2, 6]: 289.56% | % Med G5/C: percent increase in marker MMP-7 with respect to the control group ([2]; bronchial tissue, Group 5): 549.34% | % Med G6/C: percent increase in marker MMP-7 with respect to the control group ([2]; bronchial tissue, Group 6): 467.45% | % Med G7/C: percent increase in marker MMP-7 with respect to the control group ([2]; bronchial tissue, Group 7): 356.47% | % Med G8/C: percent increase in marker MMP-7 with respect to the control group ([2]; bronchial tissue, Group 8): 241.56% | Percent increase in MMP-7 with respect to the control group [2, 7]: 1,012.67% | Percent increase in MMP-7 with respect to the control group [2, 8]: 899.78% | Percent increase in MMP-7 with respect to the control group [2, 9]: 788.56% | Percent increase in MMP-7 with respect to the control group [2, 10]: 576.89% | Percent increase in MMP-7 with respect to the control group [2, 11]: 1,205.45% | Percent increase in MMP-7 with respect to the control group [2, 12]: 809.54% | Percent increase in MMP-7 with respect to the control group [2, 13]: 372.23% | Percent increase in MMP-7 with respect to the control group [2, 14]: 112.25% | Percent increase in MMP-7 with respect to the control group [2, 15]: 345.90% | Percent increase in MMP-7 with respect to the control group [2, 16]: 325.50% | Percent increase in MMP-7 with respect to the control group [2, 17]: 220.38% | Percent increase in MMP-7 with respect to the control group [2, 18]: 184.56% | Percent increase in MMP-7 with respect to the control group [2, 19]: 321.48% | Percent increase in MMP-7 with respect to the control group [2, 20]: 232.63% | Percent increase in MMP-7 with respect to the control group [2, 21]: 142.07% | Percent increase in MMP-7 with respect to the control group [2, 22]: 109.05% | Percent increase in MMP-7 with respect to the control group [2, 23]: 2,267.10% | Percent increase in MMP-7 with respect to the control group [2, 24]: 1,308.16% | Percent increase in MMP-7 with respect to the control group [2, 25]: 1,119.62% | Percent increase in MMP-7 with respect to the control group [2, 26]: 942.01% | Percent increase in MMP-7 with respect to the control group [2, 27]: 1,835.98% | Percent increase in MMP-7 with respect to the control group [2, 28]: 1,147.87% | Percent increase in MMP-7 with respect to the control group [2, 29]: 444.94% | Percent increase in MMP-7 with respect to the control group [2, 30]: 136.90% | Percent increase in MMP-7 with respect to the control group [2, 31]: 2,004.34% | Percent increase in MMP-7 with respect to the control group [2, 32]: 1,591.34% | Percent increase in MMP-7 with respect to the control group [2, 33]: 1,456.45% | Percent increase in MMP-7 with respect to the control group [2, 34]: 967.12% | Percent increase in MMP-7 with respect to the control group [2, 35]: 1,820.78% | Percent increase in MMP-7 with respect to the control group [2, 36]: 1,109.45% | Percent increase in MMP-7 with respect to the control group [2, 37]: 450.45% | Percent increase in MMP-7 with respect to the control group [2, 38]: 121.80%

Reference: patent US20170290774A1, “NEUROKININ-1 RECEPTOR ANTAGONIST COMPOSITION FOR TREATMENT OF DISEASES AND CONDITIONS OF THE RESPIRATORY TRACT” (PLUS VITECH, S.L., priority 2014, published 2017)
